Assay results published in patent US20230218559A1, “Compositions and Methods for Treating Aging and Age-Related Diseases and Symptoms” (The Regents of the University of California, priority 2014, published 2023).
Blank lines part the entries; values can stand above or below the molecule they belong to.

Key:
A549 = test: Cell growth assay; assay type: cell-based, human; details: data not shown
Experimental: (§1) Cells were seeded in 12-well plates and after overnight incubation were treated with indicated concentrations of each compound. After harvesting, cells were stained by Acridine Orange (AO) and DAPI. Cell number and viability were measured based on AO and DAPI fluorescence measured by NC3000 (Chemometec) following the manufacturer's instructions.

HEK 293 cells = test: Cell growth assay; assay type: cell-based, human; details: data not shown
Experimental: as §1

Jurkat = test: Cell growth assay; assay type: cell-based, human; details: data not shown
Experimental: as §1

[1] = tested on: normal human diploid fibroblasts WI-38; test: Cell growth assay; assay type: cell-based; details: data not shown
Experimental: as §1

ATP synthase (Complex V) = molecular target: T1, ATP synthase (Complex V) (Mus musculus, UniProt P56480); test: Mitochondrial coupling assay / respiratory control ratio; assay type: biochemical; details: mouse liver mitochondria
T1 construct: Mitochondria were isolated from mouse liver as described above; from tissue; host or cells: isolated mouse liver mitochondria
Experimental: Mitochondrial RCR was analyzed using isolated mouse liver mitochondria (see Brand, et al. Biochem J 435, 297-312 (2011) and references therein). Mitochondria were isolated from mouse liver as described above. The final mitochondrial pellet was resuspended in 30 μl of MAS buffer (70 mM sucrose, 220 mM mannitol, 10 mM KH2PO4, 5 mM MgCl2, 2 mM HEPES, 1 mM EGTA, and 0.2% fatty acid free BSA, pH 7.2).
Isolated mitochondrial respiration was measured by running coupling and electron flow assays as described (Rogers, et al. PLoS One 6, e21746 (2011)). For the coupling assay, 20 μg of mitochondria in complete MAS buffer (MAS buffer supplemented with 10 mM succinate and 2μM rotenone) were seeded into a XF24 Seahorse plate by centrifugation at 2,000×g for 20 minutes at 4° C. […] Mitochondrial respiration begins in a coupled State 2; State 3 is initiated by 2 mM ADP; State 4o (oligomycin-insensitive, i.e., Complex V-independent) is induced by 2.5 μM oligomycin and State 3u (FCCP uncoupled maximal respiratory capacity) by 4 μM FCCP. Finally, 1.5 μg/ml antimycin A was injected at the end of the assay.

[2] = tested on: electron transport chain (Complex I, Complex II, Complex IV); test: Mitochondrial electron flow assay; assay type: biochemical, mouse
Experimental: Mitochondria were isolated from mouse liver as described above.
For the electron flow assay, the MAS buffer was supplemented with 10 mM sodium pyruvate (Complex I substrate), 2 mM malate (Complex II inhibitor), and 4 μM FCCP, and the mitochondria are seeded the same way as described for the coupling assay. After basal readings, the sequential injections were as follows: 2 μM rotenone (Complex I inhibitor), 10 mM succinate (Complex II substrate), 4 μM antimycin A (Complex III inhibitor), and 10 mM/100 μM ascorbate/tetramethylphenylenediamine (Complex IV substrate).

C. elegans [3] = test: C. elegans lifespan analysis; assay type: in vivo, Caenorhabditis elegans; details: for mean lifespan: 8 mM; for effect on lifespan of adult C. elegans (in words): adult worms, metabolites at 8 mM; for lifespan of subjects (in words): experiments similar to those for α-KG and 2-HG compounds, data not shown
Experimental: Lifespan assays were conducted at 20° C. on solid nematode growth media (NGM) using standard protocols and were replicated in at least two independent experiments. […] All compounds were mixed into the NGM media after autoclaving and before solidification of the media. Assay plates were seeded with OP50 (or a designated RNAi feeding clone, see below). Worms were moved to new assay plates every 4 days (to ensure sufficient food was present at all times and to reduce the risk of mold contamination). […] For analysis concerning mutant strains, the corresponding parent strain was used as a control in the same experiment. […]
Lifespan data is provided in FIG. 13, including sample sizes. The sample size was chosen on the basis of standards done in the field in published manuscripts. No statistical method was used to predetermine the sample size. Animals were assigned randomly to the experimental groups. […] Lifespan data were analyzed using GraphPad Prism; P-values were calculated using the log-rank (Mantel-Cox) test.

ATP5B = molecular target: T2, ATP5B (Homo sapiens, UniProt P06576); test: DARTS (drug affinity responsive target stability) with Western blotting; assay type: binding; details: human cell lysates, Pronase digestion
T2 construct: HeLa cells were lysed in M-PER buffer; endogenous in cells; host or cells: HeLa (alpha-KG); U87 (2-HG)
T2 sequence (P06576 48-529): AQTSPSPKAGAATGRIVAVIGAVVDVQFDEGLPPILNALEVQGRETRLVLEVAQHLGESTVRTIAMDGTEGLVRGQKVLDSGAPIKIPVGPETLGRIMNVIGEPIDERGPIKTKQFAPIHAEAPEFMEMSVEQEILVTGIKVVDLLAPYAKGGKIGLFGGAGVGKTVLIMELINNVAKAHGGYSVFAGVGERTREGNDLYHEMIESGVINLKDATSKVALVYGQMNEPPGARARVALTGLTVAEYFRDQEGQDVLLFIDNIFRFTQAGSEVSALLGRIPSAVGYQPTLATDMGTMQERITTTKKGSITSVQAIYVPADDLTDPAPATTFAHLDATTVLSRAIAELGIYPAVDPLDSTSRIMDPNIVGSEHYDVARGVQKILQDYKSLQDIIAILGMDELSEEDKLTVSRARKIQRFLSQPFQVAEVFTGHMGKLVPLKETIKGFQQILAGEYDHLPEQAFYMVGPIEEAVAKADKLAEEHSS
Experimental: Target identification using DARTS was conducted in accordance with methods know in the art. […] The resulting digests were separated by SDS-PAGE and visualized using SYPRO Ruby Protein Gel Stain (Invitrogen, S12000).
GAPDH (Ambion, AM4300) was used as a negative control.
For 2-HG experiments, DARTS was performed as described above.

U87 cells [4] = test: Assay for ATP levels in U87 cells; assay type: cell-based, human; details: mitochondrial oxidative phosphorylation conditions, 2 hours
Experimental: For 2-HG experiments, U87 cells were seeded in 96-well plates at 2×10^4 cells per well and treated with indicated compound for 2 hours in triplicate. ATP levels were measured using the CellTiter-Glo luminescent ATP assay (Promega, G7572); luminescence was read using Analyst HT (Molecular Devices). […] Statistical analysis was performed using GraphPad Prism (unpaired t-test).

U87 cells [5] = test: Oxygen consumption rate in U87 cells (2-HG experiments); assay type: cell-based, human
Experimental: For 2-HG experiments, OCR and ECAR measurements were made using a Seahorse XF-24 analyzer (Seahorse Bioscience) (Wu, et al. Am J Physiol Cell Physiol 292, C125-136 (2007)). U87 cells were seeded in Seahorse XF-24 cell culture microplates at 50,000 cells per well in DMEM supplemented with 10% FBS and either 10 mM glucose or 10 mM galactose, and incubated 0/N at 37° C. in 5% CO2. […] Cells were washed in unbuffered DMEM (pH 7.4, 10 mM glucose) immediately prior to measurement, and maintained in this buffer with indicated concentrations of compound. OCR or ECAR were measured 3 times under basal conditions and normalized to protein concentration per well. Statistical analysis was performed using GraphPad Prism (unpaired t-test, two-tailed, two-sample unequal variance).

U87 cells [6] = test: Cell growth and viability assays in U87 cells; assay type: cell-based, human
Experimental: IDH1(R132H) mutant or IDH1(WT) expressing U87 cells were as reported (Li, et al. Neuro Oncol 15, 57-68). […] All the cells were cultured at 37° C. and 5% CO2. Cells were transfected with indicated siRNA using Thermo Scientific DharmaFECT Transfection Reagent 1 by following the manufacturer's instructions.
as §1

U87 cells [7] = tested on: U87 cells
Experimental: Cells were cultured for 24 hours, rinsed with PBS, and medium containing [1,2-^13C]glucose (1 g/L) added. […] Cells were scraped off, transferred to an Eppendorf tube, and 10 nmol norvaline as well as 400 ml chloroform added to each sample. For the metabolite extraction, samples were vortexed for 5 minutes on ice, spun down, and the aqueous layer transferred into a glass vial and dried. Metabolites were resuspended in 70% ACN, and 5 ml sample loaded onto a Phenomenex Luna 3u NH2 100A (150×2.0 mm) column. The chromatographic separation was performed on an UltiMate 300RSLC (Thermo Scientific) with mobile phases A (5 mM NH4AcO, pH 9.9) and B (ACN) and a flow rate of 300 ml / minutes. […] TraceFinder 3.1 (Thermo Scientific) was used to quantify metabolites as area under the curve using retention time and accurate mass measurements (≤3 ppm). Relative amounts of metabolites were calculated by summing up all isotopomers of a given metabolite.

[8] = tested on: ADP import into the mitochondria; test: Assay for ADP import; assay type: biochemical; details: mouse liver mitochondria, 600 μM; (R) P=0.4237, (S) P=0.1623
Experimental: Freshly prepared mice liver mitochondria were suspended at 1 μg/μl in medium consisting of 220 mM mannitol, 70 mM sucrose, 2 mM HEPES, 2.74 μM antimycin A, 5 μM rotenone, 1 mM
EGTA, and 10 mM potassium phosphate buffer, pH 7.4. The mitochondria suspension was incubated with designated drug for 30 minutes in 37° C. After incubation, the suspension was transferred to ice for 10 minutes incubation. Afterwards, 100 μM [^3H]ADP (specific radioactivity, 185 kBq/pmol) was added, and the mixture was immediately vortexed and incubated for 20 seconds on ice. The reaction was terminated by addition of 10 μM carboxyatractyloside, and the mixture was centrifuged at 10,000 g for 10 minutes at 4° C. After centrifuge, the supernatant was collected for reading and the pellet was washed twice with the same medium supplemented with 10 μM carboxyatractyloside. After washing, the pellet was lysed by the addition of 0.2 ml of 1% SDS. The radioactivity of the lysate and supernatant was determined by TRI-CARB 2300 TR liquid scintillation analyzer. The ADP-ATP translocation rate was determined by the ratio of the pellet versus the sum reading of the pellet and supernatant.

mTOR = test: Assay for mammalian TOR (mTOR) pathway activity; assay type: cell-based, human; details: U87 cells
Text: Specific antibodies used: P-S6K T389 (Cell Signaling Technology, 9234), S6K (Cell Signaling Technology, 9202S), P-4E-BP1 S65 (Cell Signaling Technology, 9451S), 4E-BP1 (Cell Signaling Technology, 9452S), P-AKT S473 (Cell Signaling Technology, 4060S), AKT (Cell Signaling Technology, 4691S), P-ULK1 S757 (Cell Signaling Technology, 6888), ULK1 (Cell Signaling Technology, 4773S), and GAPDH (Santa Cruz Biotechnology, 25778).

AMPK = AMPK (T172) phosphorylation by Western blotting; assay type: cell-based, human; details: WI-38 cells; higher concentration of octyl α-KG
Experimental: Western blotting was performed with specific antibodies against P-AMPK T172 (Cell Signaling Technology, 2535S) and AMPK (Cell Signaling Technology, 2603S). […] Number of GFP::LGG-1 containing puncta was quantitated using ImageJ. Bars indicate the mean. […] HEK-293 (Panel d) or HeLa (Panel e) cells were lysed in M-PER buffer (Thermo Scientific, 78501) with the addition of protease inhibitors (Roche, 11836153001) and phosphatase inhibitors (50 mM NaF, 10 mM β-glycerophosphate, 5 mM sodium pyrophosphate, 2 mM Na3VO4). Protein concentration of the lysate was measured by BCA Protein Assay kit (Pierce, 23227). […] Pronase (Roche, 10165921001) digestions were performed for 20 minutes at room temperature, and stopped by adding SDS loading buffer and immediately heating at 95° C. for 5 minutes (for Panel d) or 70° C. for 10 minutes (for Panel e). Samples were subjected to SDS-PAGE on 4-12% Bis-Tris gradient gel (Invitrogen, NP0322BOX) and Western blotted with specific antibodies against ATP5B (Santa Cruz, sc58618), mTOR (Cell Signaling Technology, 2972), or GAPDH (Ambion, AM4300). ImageJ was used to quantify the mTOR/GAPDH and ATP5B/GAPDH ratios.

C. elegans [9] = test: Assay for autophagy in C. elegans (GFP::LGG-1 puncta); assay type: in vivo, Caenorhabditis elegans
Experimental: Statistical analysis was performed using Microsoft Excel (t-test, two-tailed, two-sample unequal variance).

Structure (SMILES): O=C(O)CCC(O)C(=O)O (stereo not shown) [2-HG, 2-hydroxypentanedioate]
cell growth (A549): Growth inhibition
cell growth (HEK 293 cells): Growth inhibition
cell growth (Jurkat): Growth inhibition
cell growth [1]: Growth inhibition

coupling assay, 1-octyl versus 5-octyl ester (ATP synthase (Complex V)): identical results
Structure (SMILES): CCCCCCCCOC(=O)CCC(=O)C(=O)O [5-octyl α-KG, 5-(Octyloxy)-2,5-dioxopentanoic acid]
electron flow assay, 1-octyl versus 5-octyl ester ([2]; mouse liver mitochondria): identical results

binding to ATP5B by DARTS (ATP5B): bind
Structure (SMILES): O=C(O)CC[C@@H](O)C(=O)O [(R)-2-HG, 2-hydroxyglutaric acid]
mean lifespan (C. elegans [3]; FIG. 14 Panel B, vehicle 14.0): 20.0 days of adulthood
effect on lifespan of adult C. elegans (in words) (C. elegans [3]): increase the lifespan

binding to ATP5B by DARTS (ATP5B): bind
Structure (SMILES): O=C(O)CC[C@H](O)C(=O)O [(S)-2-HG, 2-hydroxyglutaric acid]
mean lifespan (C. elegans [3]; FIG. 14 Panel C, vehicle 15.7): 20.7 days of adulthood
effect on lifespan of adult C. elegans (in words) (C. elegans [3]): increase the lifespan

Structure (SMILES): N[C@H](CCC(=O)O)C(=O)O [D-glutamate]
lifespan of subjects (in words) (C. elegans [3]): increases the lifespan

Structure (SMILES): N[C@@H](CCC(=O)O)C(=O)O [L-glutamate]
lifespan of subjects (in words) (C. elegans [3]): increases the lifespan

Structure (SMILES): CC(C)C[C@H](N)C(=O)O [Leu]
mean lifespan (C. elegans [3]; FIG. 14 Panel B, vehicle 14.0): 13.2 days of adulthood

Structure (SMILES): CSCC[C@H](N)C(=O)O [Met]
mean lifespan (C. elegans [3]; FIG. 14 Panel B, vehicle 14.0): 14.7 days of adulthood

Structure (SMILES): O=C([O-])CCC(=O)C(=O)[O-].[Na+].[Na+] [Na2α-KG]
mean lifespan (C. elegans [3]; FIG. 14 Panel C, vehicle 15.7): 21.5 days of adulthood

state 3 respiration (ATP synthase (Complex V); 600 μM, octanol vehicle): decreases
state 4o or 3u respiration (ATP synthase (Complex V); 600 μM, octanol vehicle): not
accumulation of 2-HG in treated cells (U87 cells [7]): 20-100 fold
Structure (SMILES): CCCCCCCCOC(=O)C(O)CCC(=O)O (stereo not shown) [octyl 2-HG]
ATP content (U87 cells [4]): decreased
ATP synthase dependent (oligomycin sensitive) oxygen consumption rate (U87 cells [5]; U87 cells): decreased
respiration as indicated by OCR (U87 cells [5]; U87 cells in glucose media): decreased
Complex I, Complex II, or Complex IV respiration ([2]; 30 minute treatment, 600 μM): No difference
growth rate (U87 cells [6]; glucose medium, to a lesser extent, not shown): reduced
growth rate (U87 cells [6]; glucose-free medium, 400 μM and 800 μM): decreased growth rate

Structure (SMILES): CCCCCCCCOC(=O)[C@H](O)CCC(=O)O [octyl (R)-2-HG, 1-Octyl (R) 2-hydroxypentanedioate]
viability upon glucose starvation (U87 cells [6]; 400 μM and 800 μM): decreased
ADP import [8]: does not affect

Structure (SMILES): CCCCCCCCOC(=O)[C@@H](O)CCC(=O)O [octyl (S)-2-HG, 1-Octyl (S) 2-hydroxypentanedioate]
viability upon glucose starvation (U87 cells [6]; 400 μM and 800 μM): decreased
ADP import [8]: does not affect

Structure (SMILES): CC[C@H]1/C=C/C=C/C[C@@H](C)[C@H](O)[C@@](C)(O)C(=O)[C@@H](C)[C@H](O)[C@@H](C)C(=O)[C@@H](C)[C@H](O)[C@@H](C)/C=C/C(=O)O[C@@H]2[C@H](C)[C@H](CC1)O[C@]1(CC[C@H](C)[C@H](C[C@@H](C)O)O1)[C@H]2C [oligomycin, reference compound]
increase of mean lifespan of N2 worms (C. elegans [3]; 40 μM, from young adult stage): 32.3%
effect on lifespan of adult C. elegans (in words) (C. elegans [3]): extends the lifespan
ATP content (U87 cells [4]): decreased
phosphorylation of mTOR substrates (mTOR): decreased
P-AMPK (T172) (AMPK): increased
autophagy (GFP::LGG-1 puncta) (C. elegans [9]; CeTOR(RNAi) worms, oligomycin): does not augment
autophagy (GFP::LGG-1 puncta) (C. elegans [9]; L3 epidermis, oligomycin 40, α-KG 8 mM, versus vehicle): significantly higher
